# From PMC3090393, “New Noncovalent Inhibitors of Penicillin-Binding Proteins from Penicillin-Resistant Bacteria” (PLoS ONE, 2011)
# Columns and labels:
# [1] = molecular target: T1, PBP2a (Staphylococcus aureus, UniProt P07944); assay: PBP2a enzymatic inhibition assay (fluorescein-labeled ampicillin, residual penicillin binding activity); type: biochemical, Staphylococcus aureus ATCC 43300
# T1 construct: made in house
# Procedure: (§1) PBP2a from Staphylococcus aureus ATCC 43300 and PBP5fm from Enterococcus faecium D63r were overproduced and purified as described previously, [18].
# (§2) Each of the purified PBPs (2.5 µM) were first incubated with 1 mM potential inhibitor in 100 mM phosphate buffer, 0.01% Triton X-100[19], pH 7, for 4 h at 30°C. Then, 25 µM fluorescein-labeled ampicillin[20] was added to detect the residual penicillin binding activity (RA). The samples were further incubated for 30 min at 37°C in a total volume of 20 µL. Denaturation buffer was added (0.1 M Tris/HCl, pH 6.8, containing 25% glycerol, 2% SDS, 20% β-mercaptoethanol and 0.02% bromophenol blue) and the samples were heated to 100°C for 1 min. The samples were then loaded onto a 10% SDS-acrilamide gel (10×7 cm) and electrophoresis was performed for 45 min at 180 V (12 mA). Detection and quantification of the RAs were with Molecular Image FX equipment and Quantity One software (BioRad, Hercules, CA, USA). Three independent experiments were carried out for each inhibitor.
# [2] = molecular target: PBP2x 5204 (Streptococcus pneumoniae, UniProt P59676); assay: PBP2x 5204 enzymatic inhibition assay (S2d hydrolysis, DTNB); type: biochemical, Streptococcus pneumoniae strain 5204; settings: residual activity of the enzyme at 1 mM inhibitor; 240 min
# Procedure: PBP2x-5204 from Streptococcus pneumonia and N-benzoyl-D-alanyl-thioglycolate S2d[21], [22] were prepared as previously described. All assays with PBP2x 5204 were carried out in 96-well microtiter plates (Brand, Wertheim, Germany). PBP2x 5204 (0.6 µM) was incubated in the presence of the potential inhibitors in 10 mM sodium phosphate buffer (pH 7.0) containing 70 mM D-alanine and 0.01 mg/mL BSA, for 4 h at 25°C. This preincubation was used to also detect slow binding inhibitors. After the preincubation, the RA of PBP2x 5204 was determined. The initial rate of hydrolysis of 1 mM S2d in the presence of 1 mM DTNB was determined by monitoring the increase in absorbance at 412 nm (DTNB: ε[Δ ε] = […]) using a microplate absorbance reader (Power Wave X, Biotek Instruments, Winooski, U.S.A.). The rate of spontaneous hydrolysis of S2d in the presence of the potential inhibitors was also determined in the absence of PBP2x 5204. All of the assays were carried out in triplicate. The determination of the RA of PBP2x 5204 in the absence of inhibitors was carried out six times on each plate. A test compound was considered as an inhibitor if the RA was <80%. In this case, to reveal false positives, the assays were also carried out under the same conditions in the presence of 0.01% Triton X-100. As described in the literature, promiscuous inhibitors (false positives) are slow binding, noncompetitive inhibitors. To avoid detailed kinetic investigations, it is possible to identify such compounds by carrying out the assays in the presence of Triton X-100[14], [19]. Promiscuous inhibitors show no inhibition in the presence of Triton X-100. The IC50 values in the presence of Triton X-100 were determined if the RAs were <50%. (RA: ∼50%, IC50∼c, c: concentration of compound in the assay; RA >50%, IC50 > c). The RA was measured over a range of concentrations, from which the IC50 values were determined by non-linear regression analysis, using Sigma Plot (Systat software) and fitting the data to the equation y = y0+(a×b)/(b+x)[23].
# [3] = molecular target: PBP5fm (Enterococcus faecium, UniProt Q47759); assay: PBP5fm enzymatic inhibition assay (fluorescein-labeled ampicillin, residual penicillin binding activity); type: biochemical, Enterococcus faecium D63r
# Procedure: as §1, §2
# [4] = system: Bacillus subtilis ATCC 6633; assay: In-vitro antibacterial activity (MIC, broth microdilution); type: cell-based; settings: ATCC6633
# Procedure: (§3) Determination of the antibacterial activities was carried out on microtiter plates, in 200 µL (final volume) of Müeller-Hinton Broth (MHB), following EUCAST (European Committee on Antimicrobial Susceptibility testing)/CLSI (Clinical and Laboratory Standard Institute) recommended procedures, [25]. The compounds were solubilized in MHB, just before use. Inocula were prepared for each strain by resuspending isolated colonies from 18 h cultured plates. Equivalents of 0.5 Mac Farland turbidity standards (approximately 1×10^8 CFU mL^−1) were prepared in saline solution ([…]) and then diluted 200-fold in MBH.
# [5] = system: Citrobacter freundii ATCC 8090; assay: as above; type: cell-based; settings: ATCC8090
# Procedure: as §3
# [6] = system: Enterococcus faecalis ATCC 29212; assay: as above; type: cell-based; settings: ATCC29212
# Procedure: as §3
# [7] = system: Enterococcus faecalis ATCC 7937; assay: as above; type: cell-based; settings: ATCC7937
# Procedure: as §3
# [8] = system: Enterococcus faecium ATCC 19434; assay: as above; type: cell-based; settings: ATCC19434
# Procedure: as §3
# [9] = system: Enterococcus hirae ATCC 8790; assay: as above; type: cell-based; settings: ATCC8790
# Procedure: as §3
# [10] = system: Escherichia coli ATCC 8739; assay: as above; type: cell-based; settings: ATCC8739
# Procedure: as §3
# [11] = system: Klebsiella pneumoniae ATCC 13883; assay: as above; type: cell-based; settings: ATCC13883
# Procedure: as §3
# [12] = system: Listeria innocua ATCC 33090; assay: as above; type: cell-based; settings: ATCC33090
# Procedure: as §3
# [13] = system: Listeria monocytogenes ATCC 14780; assay: as above; type: cell-based; settings: ATCC14780
# Procedure: as §3
# [14] = system: Micrococcus luteus ATCC 9341; assay: as above; type: cell-based; settings: ATCC9341
# Procedure: as §3
# [15] = system: Proteus mirabilis ATCC 29936; assay: as above; type: cell-based; settings: ATCC29936
# Procedure: as §3
# [16] = system: Pseudomonas aeruginosa ATCC 27853; assay: as above; type: cell-based; settings: ATCC27853
# Procedure: as §3
# [17] = system: Staphylococcus aureus ATCC 25923; assay: as above; type: cell-based; settings: ATCC25923
# Procedure: as §3
# [18] = system: Staphylococcus aureus ATCC 43300 (MRSA); assay: as above; type: cell-based
# Procedure: as §3
# [19] = system: Staphylococcus aureus mp 1 (inducible MRSA); assay: as above; type: cell-based
# Procedure: as §3
# [20] = system: Staphylococcus epidermidis ATCC 12228; assay: as above; type: cell-based; settings: ATCC12228
# Procedure: as §3
# [21] = system: Streptococcus pneumoniae ATCC 33400; assay: as above; type: cell-based; settings: ATCC33400
# Procedure: as §3
# [22] = system: Streptococcus pneumoniae ATCC 49619; assay: as above; type: cell-based; settings: ATCC49619
# Procedure: as §3
# [23] = system: Streptococcus pneumoniae D39; assay: as above; type: cell-based
# Procedure: as §3
# [24] = system: panel of five Gram-negative and 15 Gram-positive bacterial strains; assay: In-vitro antibacterial activity (MIC), whole panel; type: cell-based; settings: summary over the whole panel; read-out: MICs for all of the bacterial strains under investigation
# Procedure: as §3
# [25] = in the presence of 0.01% Triton X-100
# T1 sequence (P07944 whole entry): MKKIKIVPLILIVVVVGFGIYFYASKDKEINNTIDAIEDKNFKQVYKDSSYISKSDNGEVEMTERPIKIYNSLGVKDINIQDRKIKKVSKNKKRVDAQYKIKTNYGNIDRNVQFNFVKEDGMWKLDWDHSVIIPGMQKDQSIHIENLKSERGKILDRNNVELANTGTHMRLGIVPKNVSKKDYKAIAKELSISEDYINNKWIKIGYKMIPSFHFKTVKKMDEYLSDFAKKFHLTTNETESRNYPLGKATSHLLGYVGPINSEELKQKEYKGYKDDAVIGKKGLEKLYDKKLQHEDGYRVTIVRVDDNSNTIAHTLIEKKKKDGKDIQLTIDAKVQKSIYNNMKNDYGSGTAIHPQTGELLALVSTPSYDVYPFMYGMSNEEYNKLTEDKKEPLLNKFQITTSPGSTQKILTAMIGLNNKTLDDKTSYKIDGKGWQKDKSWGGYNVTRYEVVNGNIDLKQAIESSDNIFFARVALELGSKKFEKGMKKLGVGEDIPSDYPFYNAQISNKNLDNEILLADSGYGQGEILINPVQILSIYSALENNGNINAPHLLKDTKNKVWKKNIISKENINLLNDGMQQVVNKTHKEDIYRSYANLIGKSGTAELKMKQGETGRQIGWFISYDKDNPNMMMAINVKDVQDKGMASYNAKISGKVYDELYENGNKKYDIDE
# Sequence of PBP5fm (Q47759 entry or part of it): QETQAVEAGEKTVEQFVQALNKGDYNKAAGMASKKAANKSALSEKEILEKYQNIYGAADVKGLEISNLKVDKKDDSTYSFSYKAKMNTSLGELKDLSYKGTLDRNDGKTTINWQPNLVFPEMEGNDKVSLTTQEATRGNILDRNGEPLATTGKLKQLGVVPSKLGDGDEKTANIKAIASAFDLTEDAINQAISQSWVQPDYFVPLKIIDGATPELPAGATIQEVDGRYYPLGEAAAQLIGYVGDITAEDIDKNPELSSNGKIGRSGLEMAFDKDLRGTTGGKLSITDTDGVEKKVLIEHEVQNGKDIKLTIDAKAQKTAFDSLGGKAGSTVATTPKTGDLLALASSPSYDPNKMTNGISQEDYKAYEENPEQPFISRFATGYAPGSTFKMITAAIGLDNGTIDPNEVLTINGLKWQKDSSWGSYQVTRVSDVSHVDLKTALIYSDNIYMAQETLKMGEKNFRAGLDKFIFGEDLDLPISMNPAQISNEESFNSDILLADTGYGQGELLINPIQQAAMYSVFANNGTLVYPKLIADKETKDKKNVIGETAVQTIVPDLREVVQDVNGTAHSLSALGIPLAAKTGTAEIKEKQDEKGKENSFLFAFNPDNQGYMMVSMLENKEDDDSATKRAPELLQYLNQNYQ
# Sequence of PBP2x 5204 (P59676 49-750): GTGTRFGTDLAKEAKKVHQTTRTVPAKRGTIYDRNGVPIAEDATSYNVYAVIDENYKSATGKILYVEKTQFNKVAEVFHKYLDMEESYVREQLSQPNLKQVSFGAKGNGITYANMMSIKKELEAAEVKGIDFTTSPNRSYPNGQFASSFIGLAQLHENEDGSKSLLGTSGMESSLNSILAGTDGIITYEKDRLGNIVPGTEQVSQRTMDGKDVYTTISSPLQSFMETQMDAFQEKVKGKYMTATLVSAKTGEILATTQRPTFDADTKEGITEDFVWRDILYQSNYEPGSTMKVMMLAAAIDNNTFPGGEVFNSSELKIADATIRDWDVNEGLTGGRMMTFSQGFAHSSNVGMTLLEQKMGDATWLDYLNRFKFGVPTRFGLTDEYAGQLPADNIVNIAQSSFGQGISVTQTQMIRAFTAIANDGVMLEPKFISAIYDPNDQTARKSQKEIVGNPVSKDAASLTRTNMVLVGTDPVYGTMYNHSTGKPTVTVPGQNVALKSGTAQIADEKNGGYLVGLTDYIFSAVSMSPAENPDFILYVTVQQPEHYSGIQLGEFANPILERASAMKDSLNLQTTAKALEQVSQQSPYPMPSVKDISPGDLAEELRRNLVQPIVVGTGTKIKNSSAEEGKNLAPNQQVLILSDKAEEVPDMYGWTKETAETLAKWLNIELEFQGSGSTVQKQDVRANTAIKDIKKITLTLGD
smiles,measurement,setting,value
"CCCOc1cccc(C(=O)Nc2ccccc2C(=O)O)c1 [compound 12, 2-(3-Propoxybenzamido)benzoic acid]",remaining activity at 1000 µM,"[1]; 4 h, residual activity of the enzyme at 1 mM inhibitor, 0.01% Triton X-100, mean of three experiments, read-out: PBP2a RA [%]",47%
same,IC50,[1]; [25],910 µM
same,PBP2x5204 RA [%],[2],97%
same,activity at 1000 µM,"[3]; 4 h, residual activity of the enzyme at 1 mM inhibitor, 0.01% Triton X-100, read-out: PBP5fm RA [%]",34%
same,IC50,[3]; [25],> 1000 µM
same,MIC,[4],> 512 µg/mL
same,MIC,[5],> 512 µg/mL
same,MIC,[6],256 µg/mL
same,MIC,[7],> 512 µg/mL
same,MIC,[8],> 512 µg/mL
same,MIC,[9],256 µg/mL
same,MIC,[10],> 512 µg/mL
same,MIC,[11],> 512 µg/mL
same,MIC,[12],> 512 µg/mL
same,MIC,[13],> 512 µg/mL
same,MIC,[14],256 µg/mL
same,MIC,[15],> 512 µg/mL
same,MIC,[16],> 512 µg/mL
same,MIC,[17],512 µg/mL
same,MIC,[18],512 µg/mL
same,MIC,[19],512 µg/mL
same,MIC,[20],256 µg/mL
same,MIC,[21],256 µg/mL
same,MIC,[22],256 µg/mL
same,MIC,[23],256 µg/mL
same,MIC,[24],≥ 256 µg/mL
